Measurements from patent US8895761B2, “4-phenylpyrane-3,5-diones, 4-phenylthiopyrane-3,5-diones and 2-phenylcyclohexane-1,3,5-triones as herbicides” (Syngenta Limited, priority 2007, dated 2014).

Key:
Assay type in all cases: in vivo
[1] = system: Alopecurus myosuroides (ALOMY); experiment: Post-emergence herbicidal glasshouse test, Alopecurus myosuroides; details: Alopecurus myosuroides, 312 h, rate 250 g/ha, evaluated after 13 days, scale 100 = total damage to plant, 0 = no damage
Method: (§1) Seeds of a variety of test species were sown in standard soil in pots. After cultivation for one day (pre-emergence) or after 8 days cultivation (post-emergence) under controlled conditions in a glasshouse (at 24/16° C., day/night; 14 hours light; 65% humidity), the plants were sprayed with an aqueous spray solution derived from the formulation of the technical active ingredient in acetone/water (50:50) solution containing 0.5% Tween 20 (polyoxyethelyene sorbitan monolaurate, CAS RN 9005-64-5). The test plants were then grown in a glasshouse under controlled conditions in a glasshouse (at 24/16° C., day/night; 14 hours light; 65% humidity) and watered twice daily. After 13 days for pre and post-emergence, the test was evaluated ([…] to plant; 0=no damage to plant).
(§2) Setaria faberi (SETFA), Lolium perenne (LOLPE), Alopecurus myosuroides (ALOMY), Echinochloa crus-galli (ECHCG) and Avena fatua (AVEFA).

[2] = system: Echinochloa crus-galli (ECHCG); experiment: Pre-emergence herbicidal glasshouse test, Echinochloa crus-galli; details: Echinochloa crus-galli, 312 h, rate 250 g/ha, evaluated after 13 days, scale 100 = total damage to plant, 0 = no damage
Method: as §1, §2

[3] = system: Lolium perenne (LOLPE); experiment: Post-emergence herbicidal glasshouse test, Lolium perenne; details: 312 h, rate 250 g/ha, evaluated after 13 days, scale 100 = total damage to plant, 0 = no damage
Method: as §1, §2

[4] = system: Lolium perenne (LOLPE); experiment: Pre-emergence herbicidal glasshouse test, Lolium perenne; details: 312 h, rate 250 g/ha, evaluated after 13 days, scale 100 = total damage to plant, 0 = no damage
Method: as §1, §2

[5] = system: Avena fatua (AVEFA); experiment: Post-emergence herbicidal glasshouse test, Avena fatua; details: Avena fatua, 312 h, rate 250 g/ha, evaluated after 13 days, scale 100 = total damage to plant, 0 = no damage
Method: as §1, §2

[6] = system: Avena fatua (AVEFA); experiment: Pre-emergence herbicidal glasshouse test, Avena fatua; details: Avena fatua, 312 h, rate 250 g/ha, evaluated after 13 days, scale 100 = total damage to plant, 0 = no damage
Method: as §1, §2

[7] = system: Echinochloa crus-galli (ECHCG); experiment: Post-emergence herbicidal glasshouse test, Echinochloa crus-galli; details: Echinochloa crus-galli, 312 h, rate 250 g/ha, evaluated after 13 days, scale 100 = total damage to plant, 0 = no damage
Method: as §1, §2

[8] = system: Alopecurus myosuroides (ALOMY); experiment: Pre-emergence herbicidal glasshouse test, Alopecurus myosuroides; details: Alopecurus myosuroides, 312 h, rate 250 g/ha, evaluated after 13 days, scale 100 = total damage to plant, 0 = no damage
Method: as §1, §2

CCc1cc(-c2ccc(Cl)c(F)c2F)ccc1C1=C(O)C(C)(C)OC(C)(C)C1=O [Compound A-47]
pest or weed control at 250 g/ha [1]: 90%
pest or weed control at 250 g/ha [2]: 30%
pest or weed control at 250 g/ha [3]: 60%
pest or weed control at 250 g/ha [4]: 50%
pest or weed control at 250 g/ha [5]: 70%
pest or weed control at 250 g/ha [6]: 40%
pest or weed control at 250 g/ha [7]: 100%
pest or weed control at 250 g/ha [8]: 0%

CCc1cc(-c2ccc(Cl)c(Cl)c2F)ccc1C1=C(O)C(C)(C)OC(C)(C)C1=O [Compound A-48]
pest or weed control at 250 g/ha [1]: 50%
pest or weed control at 250 g/ha [2]: 0%
pest or weed control at 250 g/ha [3]: 30%
pest or weed control at 250 g/ha [4]: 0%
pest or weed control at 250 g/ha [5]: 20%
pest or weed control at 250 g/ha [6]: 0%
pest or weed control at 250 g/ha [7]: 100%
pest or weed control at 250 g/ha [8]: 0%

CCc1cc(-c2ccc(F)cc2)ccc1C1=C(O)C(C)(C)OC(C)(C)C1=O [Compound A-50]
pest or weed control at 250 g/ha [1]: 90%
pest or weed control at 250 g/ha [2]: 90%
pest or weed control at 250 g/ha [3]: 100%
pest or weed control at 250 g/ha [4]: 100%
pest or weed control at 250 g/ha [5]: 80%
pest or weed control at 250 g/ha [6]: 60%
pest or weed control at 250 g/ha [7]: 100%
pest or weed control at 250 g/ha [8]: 60%

CCc1cc(-c2ccc(Cl)cc2F)ccc1C1=C(O)C(C)(C)OC(C)(C)C1=O [Compound A-51]
pest or weed control at 250 g/ha [1]: 60%
pest or weed control at 250 g/ha [2]: 20%
pest or weed control at 250 g/ha [3]: 50%
pest or weed control at 250 g/ha [4]: 0%
pest or weed control at 250 g/ha [5]: 60%
pest or weed control at 250 g/ha [6]: 0%
pest or weed control at 250 g/ha [7]: 70%
pest or weed control at 250 g/ha [8]: 0%

CCc1cc(-c2ccc(Cl)c(C)c2)ccc1C1=C(O)C(C)(C)OC(C)(C)C1=O [Compound A-52]
pest or weed control at 250 g/ha [1]: 40%
pest or weed control at 250 g/ha [2]: 20%
pest or weed control at 250 g/ha [3]: 40%
pest or weed control at 250 g/ha [4]: 0%
pest or weed control at 250 g/ha [5]: 20%
pest or weed control at 250 g/ha [6]: 0%
pest or weed control at 250 g/ha [7]: 70%
pest or weed control at 250 g/ha [8]: 0%

Cc1cc(-c2cc(Cl)cc(Cl)c2)cc(C)c1C1=C(O)[C@@]2(C)CC[C@H](O2)C1=O [Compound A-54]
pest or weed control at 250 g/ha [1]: 40%
pest or weed control at 250 g/ha [2]: 0%
pest or weed control at 250 g/ha [3]: 40%
pest or weed control at 250 g/ha [4]: 0%
pest or weed control at 250 g/ha [5]: 30%
pest or weed control at 250 g/ha [6]: 0%
pest or weed control at 250 g/ha [7]: 80%
pest or weed control at 250 g/ha [8]: 0%

Cc1cc(-c2ccc(F)cc2)cc(C)c1C1=C(O)[C@@]2(C)CC[C@H](O2)C1=O [Compound A-55]
pest or weed control at 250 g/ha [1]: 100%
pest or weed control at 250 g/ha [2]: 100%
pest or weed control at 250 g/ha [3]: 100%
pest or weed control at 250 g/ha [4]: 90%
pest or weed control at 250 g/ha [5]: 90%
pest or weed control at 250 g/ha [6]: 70%
pest or weed control at 250 g/ha [7]: 100%
pest or weed control at 250 g/ha [8]: 70%

CCc1cc(-c2cc(F)cc(Cl)c2)ccc1C1=C(O)C(C)(C)OC(C)(C)C1=O [Compound A-60]
pest or weed control at 250 g/ha [1]: 60%
pest or weed control at 250 g/ha [2]: 0%
pest or weed control at 250 g/ha [3]: 70%
pest or weed control at 250 g/ha [4]: 0%
pest or weed control at 250 g/ha [5]: 70%
pest or weed control at 250 g/ha [6]: 0%
pest or weed control at 250 g/ha [7]: 90%
pest or weed control at 250 g/ha [8]: 0%

CCc1cc(-c2ccc(C(F)(F)F)cc2)ccc1C1=C(O)C(C)(C)OC(C)(C)C1=O [Compound A-70]
pest or weed control at 250 g/ha [1]: 40%
pest or weed control at 250 g/ha [2]: 0%
pest or weed control at 250 g/ha [3]: 50%
pest or weed control at 250 g/ha [4]: 0%
pest or weed control at 250 g/ha [5]: 0%
pest or weed control at 250 g/ha [6]: 0%
pest or weed control at 250 g/ha [7]: 80%
pest or weed control at 250 g/ha [8]: 0%

CCc1cc(-c2cccc(OC)c2)ccc1C1=C(O)C(C)(C)OC(C)(C)C1=O [Compound A-71]
pest or weed control at 250 g/ha [1]: 30%
pest or weed control at 250 g/ha [2]: 0%
pest or weed control at 250 g/ha [3]: 80%
pest or weed control at 250 g/ha [4]: 0%
pest or weed control at 250 g/ha [5]: 0%
pest or weed control at 250 g/ha [6]: 0%
pest or weed control at 250 g/ha [7]: 80%
pest or weed control at 250 g/ha [8]: 0%

CCc1cc(-c2ccc(C)c(F)c2)ccc1C1=C(O)C(C)(C)OC(C)(C)C1=O [Compound A-72]
pest or weed control at 250 g/ha [1]: 0%
pest or weed control at 250 g/ha [2]: 0%
pest or weed control at 250 g/ha [3]: 70%
pest or weed control at 250 g/ha [4]: 0%
pest or weed control at 250 g/ha [5]: 0%
pest or weed control at 250 g/ha [6]: 0%
pest or weed control at 250 g/ha [7]: 80%
pest or weed control at 250 g/ha [8]: 0%
